Values quoted from earlier work as cited in patent US20210386978A1, “Drug Delivery Devices and Systems for Local Drug Delivery to the Upper Urinary Tract” (TARIS Biomedical LLC, priority 2018, published 2021).
Counter-ions that a name gives are not always drawn.

Settings: solubility terms in the same block are defined in water at 37° C.

SMILES	approximate solubility
O=C(O[C@H]1C[C@H]2CC[C@@H](C1)[N+]21CCCC1)C(O)(c1ccccc1)c1ccccc1 [trospium chloride]	~500 mg/mL
Nc1ccn([C@@H]2O[C@H](CO)[C@@H](O)C2(F)F)c(=O)n1 [gemcitabine HCl]	~80 mg/mL
Nc1ccn([C@@H]2O[C@H](CO)[C@@H](O)C2(F)F)c(=O)n1 [gemcitabine base]	~15 mg/mL
Cc1ccc(O)c([C@H](CCN(C(C)C)C(C)C)c2ccccc2)c1 [tolterodine tartrate]	~12 mg/mL
